Experimental data reported in patent US20230255934A1, “NURR1 RECEPTOR MODULATORS AND USES THEREOF” (The Regents of the University of California, priority 2020, published 2023).
Numbering of substitutions follows the chain as printed. Like-named read-outs stand apart in the source and are kept apart here.

How the values were obtained:
[1] = molecular target: T1, Nurr1 LBD Arg563Ala + His516Ala (Homo sapiens, UniProt P43354, H516A/R563A); test: MST binding to Arg563Ala + His516Ala double mutant Nurr1 LBD; conditions: for Amplitude (% change) / KD (% change): Table 1, H516A/R563A relative to WT; for Amplitude: Table 1, MST amplitude, H516A/R563A; for Response Amplitude: Table 2, MST, Arg563Ala + His516Ala
T1 construct: Mutants of LAP2 Nurr1 were prepared by GenScript starting from LAP2 Nurr1 vector; made in house
T1 sequence (P43354 with tags, fused parts or gaps H516A/R563A): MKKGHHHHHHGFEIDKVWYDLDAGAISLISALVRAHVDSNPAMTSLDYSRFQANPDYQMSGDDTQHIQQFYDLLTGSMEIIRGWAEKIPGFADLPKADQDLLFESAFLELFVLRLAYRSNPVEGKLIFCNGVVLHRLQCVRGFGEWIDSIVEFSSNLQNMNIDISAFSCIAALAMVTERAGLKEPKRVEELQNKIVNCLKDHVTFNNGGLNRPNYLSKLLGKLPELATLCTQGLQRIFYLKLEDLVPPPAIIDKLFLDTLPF
Description: (§1) The plasmid used for the expression of LAP2-tagged Nurr1 LBDs (LAP2 Nurr1) was prepared by GenScript (Piscataway, N.J.) as the product of gene synthesis and subcloning into pET-21a(+) Vector (GenScript) using the Ndel and Xhol sites within the MCS. Mutants of LAP2 Nurr1 were prepared by GenScript starting from LAP2 Nurr1 vector.
(§2) Concentration-dependent association of the indoles with the Nurr1 LBD was carried out using microscale thermophoresis. Stock solutions (10 mM in DMSO) of each indole were serially diluted (200 μM indole, 0.5× dilutions down to 0.0061 μM) in MST buffer (25 mM HEPES, pH 7.4, 150 mM NaCl, and 0.1% Pluronic F127) containing 2% DMSO. The dilutions were carried out with 4% DMSO in the MST buffer for a total of 16 concentrations. Equivalent volumes and concentrations of the fluorescently labeled Nurr1 LBD in MST buffer were added to each ligand dilution in the series to reach a final concentration of 75 nM labeled protein. After incubating for 20 minutes, the samples were loaded into Monolith NT.115 Capillaries (Nanotemper).
(§3) Data were collected using the Monolith NT.115 System (Nanotemper), with settings for all samples at 40% excitation power and 40% MST power. The initial fluorescence was recorded for 3 sec and the thermophoresis fluorescence response was recorded for 20 sec. The data was inspected with Palmist software^5, and data points affected by initial fluorescence quenching or photobleaching were eliminated. The fluorescent response for each sample was normalized to the initial fluorescence using Palmist software to provide the values of thermophoresis (Fn). The resulting data was used to generate a plot of the change in thermophoresis (Fn-Fn0, where Fn=thermophoresis and Fn0=thermophoresis response in unbound range) versus concentration of the ligand. GraphPad Prism v. 8.3.0 software was used to fit the resulting data to a mass action equation for a specific binding with Hill slope, solving for KD: Fn-Fn0═Fmax·[L]^n/(KD^n+[L]^n), where Fmax=maximum amplitude of thermophoresis, [L]=concentration of the ligand at a specific point, KD=dissociation constant, nH=Hill Coefficient.

Nurr1 LBD (wildtype) = molecular target: T2, Nurr1 LBD (wildtype) (Homo sapiens, UniProt P43354); test: Microscale thermophoresis (MST) binding to wildtype Nurr1 LBD; conditions: for Binding to the Nurr1 LBD (in words): MST; for Amplitude: Table 1, MST amplitude, WT; for Response Amplitude: Table 2, MST, Wildtype
T2 construct: made in house
Description: as §2, §3
To investigate the potential impact of compound nano-aggregation on binding affinity, we used dynamic light scattering to inspect the aggregation of 5-chlorindole in solution and repeated the MST binding experiments in the presence of increasing concentrations of the surfactant Pluoronic F127 (FIGS. 12A-12D). […] As well, increasing concentrations of the surfactant Pluronic F127 had small effects (<2-fold) on the affinity of 5-chloroindole for the Nurr1 LBD (FIGS. 12A-12D).

Nurr1 LBD His516Ala = molecular target: T3, Nurr1 LBD His516Ala (Homo sapiens, UniProt P43354, H516A); test: MST binding to His516Ala mutant Nurr1 LBD; conditions: for Amplitude (% change) / KD (% change): Table 1, H516 relative to WT; for Amplitude: Table 1, MST amplitude, H516; for Response Amplitude: Table 2, MST, His516Ala
T3 construct: Mutants of LAP2 Nurr1 were prepared by GenScript starting from LAP2 Nurr1 vector; made in house
Description: as §1, §2, §3

Nurr1 LBD Arg563Ala = molecular target: T4, Nurr1 LBD Arg563Ala (Homo sapiens, UniProt P43354, R563A); test: MST binding to Arg563Ala mutant Nurr1 LBD; conditions: for Amplitude: Table 1, MST amplitude, R563A; for Amplitude (% change) / KD (% change): Table 1, R563A relative to WT; for Response Amplitude: Table 2, MST, Arg563Ala
T4 construct: Mutants of LAP2 Nurr1 were prepared by GenScript starting from LAP2 Nurr1 vector; made in house
T4 sequence (P43354 with tags, fused parts or gaps R563A): T1 sequence (P43354 with tags, fused parts or gaps H516A/R563A) with A180H
Description: as §1, §2, §3

[2] = test system: Nurr1 target genes Th and Vmat2 in MN9D cells; test: Target gene transcription assay (qPCR) in MN9D cells; assay type: cell-based, mouse
Description: Target Gene Transcription Assays. These assays were carried out using standard protocols. MN9D TET-ON frozen cell stocks (P5) were thawed and grown for 60-72 h on poly-D-lysine pre-treated culture dishes (100 mm) in Dulbecco's Modified Eagle Medium/Nutrient Mixture F-12 (DMEM/F-12; Gibco) supplemented with 5% Tet System Approved FBS (Takara Bio USA) at 37° C., 5% C02 to ˜80% confluency. The resulting cells were then trypsinized with 0.25% Trypsin-EDTA (Gibko) and diluted to 2·10^5 cells/ml with fresh medium. The resulting cell suspension (0.8 mL) was added to 2× concentrated compound in the same medium containing 0.2% DMSO (0.8 mL) in an Eppendorf tube. The cell suspension with compound or vehicle (DMSO) was then seeded onto a 24-well plate pre-treated with Poly-D-Lysine at 0.8 mL per well. Assays were performed under conditions of basal Nurr1 expression, without induction of additional Nurr1 expression using doxycycline.
After 24 h, total RNA was extracted the cells in each well using the Quick-RNA MiniPrep Plus Kit (Zymo Research), according to the manufacturer's instructions. The cDNA was then synthesized from 1000 ng of purified RNA using High-Capacity cDNA Reverse Transcription Kit (Applied Biosystems) and used as template. The qPCR as performed using iTaq Universal SYBR Green Supermix (BioRad) and CFX96 Real-Time Detection System machine (BioRad). Briefly, qPCR was performed in hard-shell 96-well PCR plates (BioRad) using cDNA corresponding to 8.75 ng of starting total RNA in a volume of 15 μl, containing 7.5 μl of SYBR Green Supermix, and 1 μL of 10 μM forward and reverse primers. Cycling parameters for qPCR included an initial denaturation at 95° C. for 3 min, followed by 40 cycles of 95° C. for 5 s and annealing at 56° C. for 30 s. The forward and reverse primers (Table 4) were ordered from IDT. Gene expression was quantified by the comparative2-ΔΔCt method, with the mouse housekeeping gene hypoxanthine-guanine phosphoribosyltransferase (Hprt) used as internal reference to determine the relative mRNA expression. Transcript levels for target genes were normalized to the housekeeping gene Hprt and fold change was compared to gene expression levels from vehicle (DMSO) only treated cells. GraphPad Prism 8 software was used for statistical analysis. Two-way ANOVA was applied for DMSO fold change vs compound. Results are from three independent experiments. Relative average expression±SD; *p<0.05, **p<0.01, ***p<0.001, ****p<0.0001 by ANOVA in comparison expression with 0 μM compound (DMSO only).

[3] = Chemical stability in solution; assay type: physicochemical; conditions: observed during data acquisition
MN9D cells = test: CytoTox-Glo cytotoxicity assay; assay type: cell-based; conditions: 24 h treatment, 10 μM unless stated
Description: Cytotoxicity assays were carried out using the CytoTox-Glo Cytotoxicity Assay Kit (Promega) according to the manufacturer's instructions. Briefly, MN9D cells were resuspended in DMEM/F-12 with 5% FBS at 2·10^5 cells/ml and added to an equal volume of two-fold concentrated compound in the same media containing 0.2% DMSO (prepared by diluting DMSO stock of the compound in warm DMEM/F-12 with 5% FBS; for DMSO control equivalent volume of DMSO was used instead of the compound stock), and immediately re-plated onto poly-D-lysine pre-treated 96-well white-walled flat clear bottom plate (Corning cat #3903) at a density of 1·10^4 cells/well (100 μL/well), 3 replicas per compound. As a background (BG) control, for each of the compound (or DMSO) equivalent volume of compound mixed with DMEM/F-12+5% FBS was plated. After 24 h treatment at 37° C., in 5% C02 incubator, 50 μL of CytoTox-Glo™ Cytotoxicity Assay Reagent was added to each well, mixed briefly by orbital shaking and incubated for 15 min at ambient temperature. Luminescence signal corresponding to dead cells was measured using Biotek Synergy H4 hybrid microplate reader. After the measurement, 50 μL of Lysis Reagent was added to each well, mixed, incubated for 15 min at ambient temperature, and total luminescence was measured. The percentage of viable cells was then calculated as follows: Percent Viable Cells (%)=100% (Total cell luminescence (test compound)—Dead cell luminescence (test compound))/(Total cell luminescence (DMSO)—Dead cell luminescence (DMSO)).

[4] = Table 1, Nurr1 variant H516A/R563A, read-out: KD
[5] = Table 2, Arg563Ala + His516Ala, read-out: Affinity (KD)
[6] = Table 1, Nurr1 variant WT, read-out: KD
[7] = Table 2, Wildtype, read-out: Affinity (KD)
[8] = Table 1, Nurr1 variant H516, read-out: KD
[9] = Table 2, His516Ala, read-out: Affinity (KD)
[10] = Table 1, Nurr1 variant R563A, read-out: KD
[11] = Table 2, Arg563Ala, read-out: Affinity (KD)

T2 sequence (P43354 with tags, fused parts or gaps): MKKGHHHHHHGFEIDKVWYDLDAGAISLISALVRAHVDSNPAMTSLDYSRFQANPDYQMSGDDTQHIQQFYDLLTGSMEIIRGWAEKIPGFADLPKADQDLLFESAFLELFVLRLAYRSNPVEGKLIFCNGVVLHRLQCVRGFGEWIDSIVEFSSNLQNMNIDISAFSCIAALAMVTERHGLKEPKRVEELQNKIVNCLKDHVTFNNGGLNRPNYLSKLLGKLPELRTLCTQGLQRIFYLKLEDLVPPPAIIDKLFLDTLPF
T3 sequence (P43354 with tags, fused parts or gaps H516A): as the sequence (P43354 with tags, fused parts or gaps) above, with H180A counted along it

## Brc1cc2cc[nH]c2cc1Br [5,6-dibromoindole]
[1]
  Amplitude (% change): +39%
  KD (% change): +627%
  Amplitude: 43 + 5
  Response Amplitude: 43 + 5 (ns)
[1]; [4]
  Kd: 16 µM
[1]; [5]
  Kd: 15.6 µM
Nurr1 LBD (wildtype)
  Binding to the Nurr1 LBD (in words): saturable binding
  Amplitude: 31 + 1
  Response Amplitude: 31 + 1
Nurr1 LBD (wildtype); [6]
  Kd: 2.2 µM
Nurr1 LBD (wildtype); [7]
  Kd: 2.2 µM
Nurr1 LBD His516Ala
  Amplitude (% change): +13%
  KD (% change): +186%
  Amplitude: 35 + 2
  Response Amplitude: 35 + 2 (ns)
Nurr1 LBD His516Ala; [8]
  Kd: 6.3 µM
Nurr1 LBD His516Ala; [9]
  Kd: 6.4 µM
Nurr1 LBD Arg563Ala
  Amplitude: 32 + 3
  Amplitude (% change): +3%
  KD (% change): +400%
  Response Amplitude: 32 + 3 (ns)
Nurr1 LBD Arg563Ala; [10]
  Kd: 11 µM
Nurr1 LBD Arg563Ala; [11]
  Kd: 11 µM
[2]
  Effect on expression of Nurr1 target genes Th and Vmat2 (in words): does not

## Clc1cc2cc[nH]c2cc1Cl [5,6-dichloroindole]
[1]
  Amplitude (% change): 0%
  KD (% change): +304%
  Amplitude: 54 + 5
  Response Amplitude: 54 + 5 (ns)
[1]; [4]
  Kd: 18 µM
[1]; [5]
  Kd: 17.9 µM
Nurr1 LBD (wildtype)
  Binding to the Nurr1 LBD (in words): saturable binding
  Amplitude: 54 + 4
  Response Amplitude: 54 + 4
Nurr1 LBD (wildtype); [6]
  Kd: 4.5 µM
Nurr1 LBD (wildtype); [7]
  Kd: 4.5 µM
Nurr1 LBD His516Ala
  Amplitude (% change): +19%
  KD (% change): +166%
  Amplitude: 67 + 9
  Response Amplitude: 67 + 9 (ns)
Nurr1 LBD His516Ala; [8]
  Kd: 12 µM
Nurr1 LBD His516Ala; [9]
  Kd: 12 µM
Nurr1 LBD Arg563Ala
  Amplitude: 47 + 3
  Amplitude (% change): −13%
  KD (% change): +189%
  Response Amplitude: 47 + 3 (ns)
Nurr1 LBD Arg563Ala; [10]
  Kd: 13 µM
Nurr1 LBD Arg563Ala; [11]
  Kd: 13.1 µM
[2]
  Effect on expression of Nurr1 target genes Th and Vmat2 (in words): does not

## Nc1ccc2[nH]ccc2c1 [5-aminoindole]
[3]
  Chemical instability in solution: autooxidation and polymerization in solution
MN9D cells
  Cytotoxicity / cell viability: significant cytotoxicity

## Oc1ccc2[nH]ccc2c1 [5-hydroxyindole]
[3]
  Chemical instability in solution: autooxidation and polymerization in solution
MN9D cells
  Cytotoxicity / cell viability: significant cytotoxicity

## Nc1ccc2cc[nH]c2c1 [6-aminoindole]
[3]
  Chemical instability in solution: autooxidation and polymerization in solution
MN9D cells
  Cytotoxicity / cell viability: significant cytotoxicity

## Oc1ccc2cc[nH]c2c1 [6-hydroxyindole]
[3]
  Chemical instability in solution: autooxidation and polymerization in solution
MN9D cells
  Cytotoxicity / cell viability: significant cytotoxicity
